Test results as given in patent publication US6541463B1, “Inhibitors of type 5 and type 3 17β-hydroxysteroid dehydrogenase and methods for their use” (Endorecherche, Inc., priority 1998, dated 2003).

Legend:
[1] = In vivo assay of oral bioavailability (plasma AUC 0-7 h by LCMS/MS); set-up: species or system male Sprague Dawley rats; conditions: male, Sprague-Dawley [Crl:CD(SD)Br], 0.5 mg
Experimental: In column 1, the oral bioavailability of preferred type 5 inhibitors, expressed in ng/mL.h, was determined as described below in “Other Tests, A-In Vivo Assays of Bioavailability of Human Type 5 17β-HSD Inhibitors”. Higher number are desirable. ND means that a determination was not done.
The measurements at various time intervals were for values greater than or equal to 1.0 ng/mL and less than or equal to 50 ng/mL.
Male Sprague-Dawley rats [Crl:CD(SD)Br] weighing 275-350 g were obtained from Charles-River Canada Inc. and housed 2 per cage during the acclimation period and individually during the study period. The animals were maintained under a regimen of 12 hours light: 12 hours dark (lights on at 08:00). Animals received certified Rodent feed (Lab Diet #5002, pellets) and tap water ad libitum. Rats were fasted (access to water only) starting on the evening prior to dosing.
Each compound to be tested was administered to three animals as a suspension in 0.4% methylcellulose by oral gavage at a dose of 0.5 mg/rat (1.0 ml/rat). Four to eight new compounds were tested each day and one group of animals received megestrol acetate (MGA) under the same conditions on each dosing day as a reference. […] Blood samples were immediately transferred into a refrigerated 0.75 ml Microtainer containing EDTA and kept in an ice-water bath until centrifugation at 3000 rpm for 10 minutes. Plasma separation was performed rapidly (less than 50 minutes) after blood collection. One aliquot of 0.25 ml of plasma was then transferred into a borosilicate tube (13×100) and was rapidly frozen on dry-ice. Plasma samples were kept at −80° C. until measurement of plasma concentration of the inhibitor(s) by LCMS/MS.
Aliquots of rat plasma (0.250 mL) were transferred to 13×100 mm borosilicate tubes. Water (1.0 mL) and internal standard solution (0.1 mL) were added to each sample and vortexed for 2 min. A mixture of N-butyl chloride and acetone (v:v, 7:3) (3 mL) was added to each sample and vortexed for 2 min. This step was repeated and the combined organic phases were evaporated to dryness under nitrogen in a Turbo Vap evaporator at 35° C. The residue was reconstituted with 1 mL of methanol and evaporated in a Turbo Vap evaporator at 35° C. The final extract was reconstituted into 0.1 mL of methanol/water (v:v, 75:25) and then transferred into a conical vial for injection into the mass spectrometer.
The assay procedure was performed by analyzing, in duplicate, rat plasma samples spiked at six different Type 5 inhibitor concentrations (1, 2, 5, 10, 20 and 50 ng/mL). The lower limit of quantitation (LOQ) was established at 1.0 ng/mL. Values lower than 1.0 ng/mL were expressed as below limit of quantification (BLQ). […]

ZR-75-1 cells [2] = experiment: Antiestrogenic activity: inhibition of E2-induced proliferation of ZR-75-1 cells; format: cell-based, human; set-up: ZR-75-1 Activity, E2 / ZR-75-1 Activity E2 E^−6: unit not given here
Experimental: The manner in which the inhibition is determined is described in “Other Tests; C-Estrogenic/Antiestrogenic Activity”. Lower numbers are desirable. ND means that a determination was not done.
(§1) Estrogenic/antiestrogenic activity of some preferred compounds has been measured using the […] human breast cancer cell line as described in more detail below.
(§2) All media and medium supplments were purchased from Sigma. Cells were subcultured weekly by treatment with a pancreatic solution containing EDTA (0.2 g/L). The cell cultures used for the experiments herein describied were between passages 89 and 94.
(§3) Cells in their logarithmic growth phase were harvested, briefly centrifuged, and resuspended in RPMI 1640. Cells were then plated in triplicate in LIMBRO 24-well plastic culture plates (2 cm^2/well). Since plating density influences the effect of hormones on ZR-75-1 cell growth, cells were plated at a density of 1×10^4 cells/well. […] Control cultures received the ethanol vehicle only. Cells were then allowed to grow at 37° C. for 10 days with medium changes (of identical composition) every 2 days.
(§4) After E2 and/or antiestrogen treatment, cells were harvested by addition of 0.5 ml of a pancreatin solution (Sigma) for 5-10 min at 37° C. before addition of 0.5 mnl of RPMI 1640 containing 5% dextran coated […] bovine serum in order to block enzymatic action. Cell number (0.10 ml aliquot) was determined by measurement of DNA content as previously described (Simard et al., Endocrinology 126: 3223-3231,1990).

ZR-75-1 cells [3] = experiment: Estrogenic activity: stimulation of proliferation of ZR-75-1 cells; format: cell-based, human
Experimental: […] The manner in which the stimulation is determined is described in “Other Tests; C-Estrogenic/Antiestrogenic activity” Lower numbers are desirable. ND means that a determination was not done.
as §1, §2, §3, §4

[4] = Table 4′, E2-induced proliferation, 3E^−8

SMILES | AUC(0-t) ([1]; Table 4′, oral, rat plasma) | ZR-75-1 Activity, E2 3E^−8 (ZR-75-1 cells [2]; [4]) | ZR-75-1 Activity, Basal E^−6 (ZR-75-1 cells [3]; Table 4′) | ZR-75-1 Activity, Basal E^−8 (ZR-75-1 cells [3]; Table 4′) | further results
CC1(C)CCC2(CCC3C4CCc5cc(O)c(C#N)cc5C4CCC32C)OC1=O (stereo not shown) [EM-01645] | 52 ± 3 ng·h/mL | – | – | – | –
CC1(C)CCC2(CCC3C4CCc5cc(O)c([N+](=O)[O-])cc5C4CCC32C)OC1=O (stereo not shown) [EM-1125-CS] | 95 ± 6.5 ng·h/mL | 0% | 34% | 10% | –
CCOc1ccc2c(c1)CCC1C2CC[C@@]2(C)C1CC[C@@]21CCC(C)(C)C(=O)O1 (stereo partly drawn) [EM-1369, 3-Ethoxy-1,3,5(10)-estratrien-17(R)-spiro-2′-(5′,5′-dimethyl-6′-oxo)-tetrahydropyran] | – | +18% | +84% | 0% | –
CC1CC(=O)OC2(CCC3C4CCc5cc(O)ccc5C4CCC32C)C1 [PB-132-142, 3-Hydroxy-1,3,5(10)-estratrien-17(R)-spiro-2′-(4′-methyl-6′-oxo)tetrahydropyran] | – | 0% | 91% | 38% | –
COCCOc1ccc2c(c1)CCC1C2CCC2(C)C1CCC21CCC(C)(C)C(=O)O1 [EM-1368-CS, 3-Methoxyethoxy-1,3,5(10)-estratrien-17(R)-spiro-2′-(5′,5′-dimethyl-6′-oxo)-tetrahydropyran] | – | 0% | +15% | 0% | –
COc1ccc(CC(=O)O[C@]2(C(C)=O)CCC3C4C=C(C)C5=CC(=O)C=C[C@]5(C)C4CC[C@@]32C)cc1 (stereo partly shown) [EM-1291] | – | – | – | – | AUC(0-t) ([1]; rat, plasma, po): 94 ± 23 ng·h/mL
COCCOc1cc2c(cc1Cl)C1CCC3(C)C(CCC34CCC(C)(C)C(=O)O4)C1CC2 (stereo not shown) [EM-1371-CS] | 64 ± 21 ng·h/mL | 0% | +137% | 0% | –
CC1CCC2(CCC3C4CCc5ccccc5C4CCC32C)OC1=O (stereo not shown) [EM-1025] | – | 0% | 201% | 20% | –
CC(=O)[C@@]1(OC(=O)CCCCF)CCC2C3C=C(C)C4=CC(=O)CC[C@]4(C)C3CC[C@@]21C (stereo partly shown) [EM-1195-CS] | – | – | – | – | ZR-75-1 Activity, E2 (ZR-75-1 cells [2]; E2): −40; ZR-75-1 Activity, E2 (ZR-75-1 cells [2]; E2, E^−8): −38; ZR-75-1 Activity, Basal (ZR-75-1 cells [3]; E^−6, in %): 18; ZR-75-1 Activity, Basal (ZR-75-1 cells [3]; E^−8, in %): −11; AUC(0-t) ([1]; rat, plasma, po): 31 ± 5.5 ng·h/mL
CC1(C)CCC2(CCC3C4CCc5cc(OS(C)(=O)=O)ccc5C4CCC32C)OC1=O (stereo not shown) [EM-1365-CS] | – | −17% | 0% | −17% | –
COc1c(Br)cc2c(c1Br)CCC1C2CCC2(C)C1CCC21CCC(C)(C)C(=O)O1 (stereo not shown) [EM-1385-CS] | 301 ± 36 ng·h/mL | – | – | – | –
COc1cc2c(cc1C(F)(F)F)C1CCC3(C)C(CCC34CCC(C)(C)C(=O)O4)C1CC2 [EM-1409, 3-Methoxy-2-trifluoromethyl-1,3,5(10)-estratrien-17(R)-spiro-2′-(5′,5′-dimethyl-6′-oxo)tetrahydropyran] | 36 ± 13 ng·h/mL | – | – | – | –
CCCCN(C)C(=O)[C@@]1(OC(C)=O)CCC2C3C=C(C)C4=CC(=O)CC[C@]4(C)C3CC[C@@]21C (stereo partly shown) [EM-1165] | – | – | – | – | AUC(0-t) ([1]; rat, plasma, po): 24 ± 3.6 ng·h/mL
CC1(C)CCC2(CCC3C4CCc5c(cc(Cl)c(OS(C)(=O)=O)c5Cl)C4CCC32C)OC1=O (stereo not shown) [EM-1392-CS] | 305 ± 49 ng·h/mL | – | – | – | –
CC1(C)CC[C@@]2(CCC3C4CCc5cc(F)ccc5C4CC[C@@]32C)OC1=O (stereo partly shown) [EM-1157-CS] | 40 ± 7 ng·h/mL | – | – | – | –
CC12CCC3c4ccc(O)cc4CCC3C1CCC21CC=CC(=O)O1 [PB-132-140, 3-hydroxy-1,3,5(10)-estratrien-17(R)-spiro-2′-(4′,5′-dihydro-6′-oxo)pyran] | – | 0% | 71% | 15% | –
CC12C=CC(=O)C=C1C=CC1C2CCC2(C)C(=O)C3(CCCCC3)CC12 (stereo not shown) [CS-204] | – | – | – | – | ZR-75-1 Activity, E2 3E^−8 (ZR-75-1 cells [2]; with E2, 3E^−8): 0; ZR-75-1 Activity E2 E^−6 (ZR-75-1 cells [2]; with E2, E^−6): −25; ZR-75-1 Activity, Basal E^−6 (ZR-75-1 cells [3]): 0; ZR-75-1 Activity, Basal E^−8 (ZR-75-1 cells [3]): 0
CC1(C)CC[C@@]2(CCC3C4CCc5cc(C(=O)O)ccc5C4CC[C@@]32C)OC1=O (stereo partly drawn) [EM-1401, 3-Carboxy-1,3,5(10)-estratrien-17(R)-spiro-2′-(5′,5′-dimethyl-6′-oxo)tetrahydropyran] | 1630 ± 181 ng·h/mL | – | – | – | –
CC1(C)CCC2(CCC3C4CCc5cc(OCCN6CCCCC6)ccc5C4CCC32C)OC1=O [EM-1390-CS, 3-(N-piperidyl-ethyl)-1,3,5(10)-estratrien-17(R)-spiro-2′-(5′,5′-dimethyl-6′-oxo)-tetrahydropyran] | 401 ± 5 ng·h/mL | – | – | – | –
CC1CCC2(CCC3C4CCc5cc(O)c([N+](=O)[O-])cc5C4CCC32C)OC1=O [EM-1126, 2-Nitro-1,3,5(10)-estratrien-3-ol-17(R)-spiro-2′-(5′-methyl-6′-oxo)tetrahydropyran] | – | 0% | −89% | 0% | –
C=CCC1CCC2(CCC3C4CCc5cc(O)ccc5C4CCC32C)OC1=O [PB-132-152, 3-Hydroxy-1,3,5(10)-estratrien-17(R)-2′-(5′-allyl-6′-oxo)tetrahydropyran] | – | −11% | 90% | 39% | –
CCCC(=O)OC1(C(C)=O)CCC2C3C=C(C)C4=CC(=O)CC(C)C4(C)C3CCC21C (stereo not shown) [CS-245] | – | – | – | – | AUC(0-t) ([1]; rat, plasma, po): 18 ± 5 ng·h/mL
CC(=O)O[C@]1(C(C)=O)CCC2C3C=C(C)C4=CC(=O)CC[C@]4(C)C3CC[C@@]21C (stereo partly shown) [megestrol acetate, reference compound] | – | – | – | – | ZR-75-1 Activity, E2 (ZR-75-1 cells [2]; E2): −81; ZR-75-1 Activity, E2 (ZR-75-1 cells [2]; E2, E^−8): −70; AUC(0-t) ([1]; rat, plasma, po): 92 ± 17 ng·h/mL
COC(=O)C1CCC2(CCC3C4CCc5cc(O)ccc5C4CCC32C)OC1=O [PB-132-146, 3-Hydroxy-1,3,5(10)-estratrien-17(R)-2′-(5′-methoxycarbonyl-6′-oxo)tetrahydropyran] | – | 0% | 91% | 0% | –
COc1ccc2c(c1)CCC1C2CCC2(C)C1CCC21CCC(C)(C)C(=O)O1 (stereo not shown) [EM-1370] | – | 0% | +24% | 0% | –
COc1ccc2c(c1)C(=O)CC1C2CC[C@@]2(C)C1CC[C@@]21CCC(C)(C)C(=O)O1 (stereo partly shown) [EM-1394] | 1760 ± 69 ng·h/mL | – | – | – | –
CCS(=O)(=O)Oc1ccc2c(c1)CCC1C2CCC2(C)C1CCC21CCC(C)(C)C(=O)O1 (stereo not shown) [EM-1364-CS] | – | −12% | +36% | 0% | –
CN(C)CCOc1ccc2c(c1)CCC1C2CCC2(C)C1CCC21CCC(C)(C)C(=O)O1 (stereo not shown) [EM-1389-CS] | 169 ± 2 ng·h/mL | – | – | – | –
CC1(C)CCC2(CCC3C4CCc5c(cc(Cl)c(O)c5Cl)C4CCC32C)OC1=O (stereo not shown) [EM-1391-CS] | 28 ± 3.4 ng·h/mL | – | – | – | –
CC(=O)O[C@]1(C(=O)N(C)C)CCC2C3C=C(C)C4=CC(=O)CC[C@]4(C)C3CC[C@@]21C (stereo partly shown) [EM-1159] | – | – | – | – | AUC(0-t) ([1]; rat, plasma, po): 452 ± 170 ng·h/mL
